Measured values: ChEMBL document CHEMBL1156080, “Small molecule inhibitors of Myc/Max dimerization and Myc-induced cell transformation” (Bioorg Med Chem Lett, 2009)
Activity calls are given as the source filed them. No cut-off for these calls is given here.

target: Transcription factor Jun (Gallus gallus) (UniProt P18870); assay: Inhibition of Jun-mediated oncogenic transformation in chicken embryo fibroblasts
Sequence (P18870 whole entry): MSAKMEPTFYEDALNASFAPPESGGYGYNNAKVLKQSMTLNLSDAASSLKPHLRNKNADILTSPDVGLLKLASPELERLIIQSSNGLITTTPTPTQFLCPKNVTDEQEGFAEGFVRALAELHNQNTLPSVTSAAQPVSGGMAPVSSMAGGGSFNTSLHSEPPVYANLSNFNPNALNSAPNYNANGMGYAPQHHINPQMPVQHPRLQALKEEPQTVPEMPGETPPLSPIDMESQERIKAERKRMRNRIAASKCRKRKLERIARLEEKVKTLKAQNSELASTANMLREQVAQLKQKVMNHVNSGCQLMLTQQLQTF

SMILES	inhibition
CN(C)c1cccc2c(S(=O)(=O)N[C@@H](CNC(=O)[C@@H]3CN(C(=O)CCC4CCN(C(=O)OC(C)(C)C)CC4)C[C@H]3C(=O)O)C(=O)OC(C)(C)C)cccc12	inactive
CNC(=O)[C@@H]1CN(C(=O)CCCCCNC(=O)OC(C)(C)C)C[C@H]1C(=O)NC[C@H](NS(=O)(=O)CCc1cccc2ccccc12)C(=O)OC(C)(C)C	inactive
CCCCS(=O)(=O)N[C@@H](CNC(=O)[C@@H]1CN(C(=O)CCCCCNC(=O)OC(C)(C)C)C[C@H]1C(=O)O)C(=O)OC(C)(C)C	inactive
CNC(=O)[C@@H]1CN(C(=O)CCCCCNC(=O)OC(C)(C)C)C[C@H]1C(=O)NC[C@H](NS(=O)(=O)c1cc(Cl)sc1Cl)C(=O)OC(C)(C)C [MYCMYCIN 2]	inactive
CNC(=O)[C@@H]1CN(C(=O)CCC2CCN(C(=O)OC(C)(C)C)CC2)C[C@H]1C(=O)NC[C@H](NS(=O)(=O)CCc1cccc2ccccc12)C(=O)OC(C)(C)C	inactive
CNC(=O)[C@@H]1CN(C(=O)CCC2CCN(C(=O)OC(C)(C)C)CC2)C[C@H]1C(=O)NCCC(=O)OC(C)(C)C	inactive
CNC(=O)[C@@H]1CN(C(=O)CCCNC(=O)OC(C)(C)C)C[C@H]1C(=O)NC[C@H](NS(=O)(=O)c1cc(Cl)sc1Cl)C(=O)OC(C)(C)C	inactive

target: Proto-oncogene tyrosine-protein kinase Src (Gallus gallus) (UniProt P00523); assay: Inhibition of Src-mediated oncogenic transformation in chicken embryo fibroblasts

SMILES	inhibition
CN(C)c1cccc2c(S(=O)(=O)N[C@@H](CNC(=O)[C@@H]3CN(C(=O)CCC4CCN(C(=O)OC(C)(C)C)CC4)C[C@H]3C(=O)O)C(=O)OC(C)(C)C)cccc12	inactive
CNC(=O)[C@@H]1CN(C(=O)CCCCCNC(=O)OC(C)(C)C)C[C@H]1C(=O)NC[C@H](NS(=O)(=O)CCc1cccc2ccccc12)C(=O)OC(C)(C)C	inactive
CCCCS(=O)(=O)N[C@@H](CNC(=O)[C@@H]1CN(C(=O)CCCCCNC(=O)OC(C)(C)C)C[C@H]1C(=O)O)C(=O)OC(C)(C)C	inactive
CNC(=O)[C@@H]1CN(C(=O)CCC2CCN(C(=O)OC(C)(C)C)CC2)C[C@H]1C(=O)NC[C@H](NS(=O)(=O)CCc1cccc2ccccc12)C(=O)OC(C)(C)C	inactive
Cc1cc(C)c(S(=O)(=O)N[C@@H](CNC(=O)[C@@H]2CN(C(=O)CC3CCN(C(=O)OC(C)(C)C)CC3)C[C@H]2C(=O)O)C(=O)OC(C)(C)C)c(C)c1 [MYCMYCIN 1]	inactive
CNC(=O)[C@@H]1CN(C(=O)CCC2CCN(C(=O)OC(C)(C)C)CC2)C[C@H]1C(=O)NCCC(=O)OC(C)(C)C	inactive
CNC(=O)[C@@H]1CN(C(=O)CCCNC(=O)OC(C)(C)C)C[C@H]1C(=O)NC[C@H](NS(=O)(=O)c1cc(Cl)sc1Cl)C(=O)OC(C)(C)C	inactive

test system: not listed separately; assay: Cytotoxicity against chicken embryo fibroblasts; set-up: species or system Gallus gallus

SMILES	Activity
CNC(=O)[C@@H]1CN(C(=O)CCCCCNC(=O)OC(C)(C)C)C[C@H]1C(=O)NC[C@H](NS(=O)(=O)c1cc(Cl)sc1Cl)C(=O)OC(C)(C)C [MYCMYCIN 2]	Non-toxic
Cc1cc(C)c(S(=O)(=O)N[C@@H](CNC(=O)[C@@H]2CN(C(=O)CC3CCN(C(=O)OC(C)(C)C)CC3)C[C@H]2C(=O)O)C(=O)OC(C)(C)C)c(C)c1 [MYCMYCIN 1]	Non-toxic

organism: Gallus gallus; assay: Inhibition of Myc/Max heterodimerization in chicken embryo fibroblasts assessed as inhibition of oncogenically transformed cell foci formation at 20 uM

SMILES	inhibition
CN(C)c1cccc2c(S(=O)(=O)N[C@@H](CNC(=O)[C@@H]3CN(C(=O)CCC4CCN(C(=O)OC(C)(C)C)CC4)C[C@H]3C(=O)O)C(=O)OC(C)(C)C)cccc12	Active
CNC(=O)[C@@H]1CN(C(=O)CCCCCNC(=O)OC(C)(C)C)C[C@H]1C(=O)NC[C@H](NS(=O)(=O)CCc1cccc2ccccc12)C(=O)OC(C)(C)C	Active
CCCCS(=O)(=O)N[C@@H](CNC(=O)[C@@H]1CN(C(=O)CCCCCNC(=O)OC(C)(C)C)C[C@H]1C(=O)O)C(=O)OC(C)(C)C	Active
CNC(=O)[C@@H]1CN(C(=O)CCCCCNC(=O)OC(C)(C)C)C[C@H]1C(=O)NC[C@H](NS(=O)(=O)c1cc(Cl)sc1Cl)C(=O)OC(C)(C)C [MYCMYCIN 2]	Active
CNC(=O)[C@@H]1CN(C(=O)CCC2CCN(C(=O)OC(C)(C)C)CC2)C[C@H]1C(=O)NC[C@H](NS(=O)(=O)CCc1cccc2ccccc12)C(=O)OC(C)(C)C	Active
Cc1cc(C)c(S(=O)(=O)N[C@@H](CNC(=O)[C@@H]2CN(C(=O)CC3CCN(C(=O)OC(C)(C)C)CC3)C[C@H]2C(=O)O)C(=O)OC(C)(C)C)c(C)c1 [MYCMYCIN 1]	Active
CNC(=O)[C@@H]1CN(C(=O)CCC2CCN(C(=O)OC(C)(C)C)CC2)C[C@H]1C(=O)NCCC(=O)OC(C)(C)C	Active
CNC(=O)[C@@H]1CN(C(=O)CCCNC(=O)OC(C)(C)C)C[C@H]1C(=O)NC[C@H](NS(=O)(=O)c1cc(Cl)sc1Cl)C(=O)OC(C)(C)C	Active

test system: not listed separately; assay: Inhibition of Myc/Max heterodimerization at 20 uM by FRET assay

SMILES	inhibition [%]
CN(C)c1cccc2c(S(=O)(=O)N[C@@H](CNC(=O)[C@@H]3CN(C(=O)CCC4CCN(C(=O)OC(C)(C)C)CC4)C[C@H]3C(=O)O)C(=O)OC(C)(C)C)cccc12	75
CNC(=O)[C@@H]1CN(C(=O)CCCCCNC(=O)OC(C)(C)C)C[C@H]1C(=O)NC[C@H](NS(=O)(=O)CCc1cccc2ccccc12)C(=O)OC(C)(C)C	24
CCCCS(=O)(=O)N[C@@H](CNC(=O)[C@@H]1CN(C(=O)CCCCCNC(=O)OC(C)(C)C)C[C@H]1C(=O)O)C(=O)OC(C)(C)C	72
CNC(=O)[C@@H]1CN(C(=O)CCCCCNC(=O)OC(C)(C)C)C[C@H]1C(=O)NC[C@H](NS(=O)(=O)c1cc(Cl)sc1Cl)C(=O)OC(C)(C)C [MYCMYCIN 2]	18
CNC(=O)[C@@H]1CN(C(=O)CCC2CCN(C(=O)OC(C)(C)C)CC2)C[C@H]1C(=O)NC[C@H](NS(=O)(=O)CCc1cccc2ccccc12)C(=O)OC(C)(C)C	43
Cc1cc(C)c(S(=O)(=O)N[C@@H](CNC(=O)[C@@H]2CN(C(=O)CC3CCN(C(=O)OC(C)(C)C)CC3)C[C@H]2C(=O)O)C(=O)OC(C)(C)C)c(C)c1 [MYCMYCIN 1]	66
CNC(=O)[C@@H]1CN(C(=O)CCC2CCN(C(=O)OC(C)(C)C)CC2)C[C@H]1C(=O)NCCC(=O)OC(C)(C)C	30
CNC(=O)[C@@H]1CN(C(=O)CCCNC(=O)OC(C)(C)C)C[C@H]1C(=O)NC[C@H](NS(=O)(=O)c1cc(Cl)sc1Cl)C(=O)OC(C)(C)C	8
